Experiments:
[1] = Steady-state pharmacokinetics in healthy young and elderly subjects
[2] = test system: ventricular repolarization, as measured by prolongation of the QT interval; experiment: QT interval prolongation study in healthy young and elderly subjects
[3] = steady state (Days 7-9), ≧18 to ≦45 yrs (N = 16)

For `C=C[C@@]1(O)CN2CC[C@H]1C[C@H]2[C@H](O)c1ccnc2ccc(OC)cc12` [3-OH Quinine, 3-hydroxyquinine], the “increase in rate and extent of absorption, elderly compared to younger subjects” value ([1]; after formulation 3A, steady state) was “approximately 25%” and the “T1/2, least squares mean” value ([1]; steady state (Days 7-9), ≧65 to ≦80 yrs (N = 15)) was 18.7 h.

With `C=C[C@H]1C[N@@]2CC[C@H]1C[C@H]2[C@H](O)c1ccnc2ccc(OC)cc12` [Quinine, cinchonan-9-ol, 6′-methoxy-, (8α,9R)-] the “AUC(ss), least squares mean” value [1, 3] was 46100 ng·h/mL, the “Tmax(ss), least squares mean” value [1, 3] was 7780 s and the “QTcI difference between the elderly and young between quinine and placebo (baseline adjusted)” value ([2]; 30 minutes post dose) was 10.06 ms. For the same molecule, the “QTcI difference between the elderly and young between quinine and placebo (baseline adjusted)” value ([2]; 48 hours post dose) was -1.92 ms, the “increase of QTcI over placebo” value ([2]; for the first 6 hours after dosing) was “above 20 msec” and the “subjects with a QTcI greater than 500 msec” value ([2]; in vivo) was “No subject”. For the same molecule, the “subjects with a maximum QTcI change from baseline of greater than 60 msec” value ([2]; in vivo) was “No subject”, the “maximal increase of QTcI over placebo” value ([2]; one hour post dose) was 28.3 ms and the “upper bound of the one sided confidence interval of maximal QTcI increase over placebo” value ([2]; one hour post dose) was 31.83 ms. The “QTcI difference between the elderly and young, mean increase” value ([2]; over 48 hours) was 3.92 ms, the “effect of age on QTc interval prolongation” value ([2]; patients ≧65 years v. younger patients) was “did not indicate that patients ≧65 years of age have significantly greater risk of QTc prolongation than younger patients” and the “increase of QTcI over placebo” value ([2]; up to 14 hours after dosing) was “above 10 msecs”.

— patent US20120183605A1 (priority 2009, published 2012)
